Patent US20230104800A1, “COMBINATION THERAPIES AND BIOMARKERS FOR TREATING CANCER” (priority 2020, published 2023)

System: SHEP-MYCN-ER cells
Assay: FUCCI high-content live-cell imaging of cell cycle-related cell-killing activity
Type: cell-based, Human
Settings: neuroblastoma SHEP-MYCN-ER cells with 200 nM 4-OHT (high MYCN), PC-002: 10 nM YM155, CHOP: 2 μM cyclophosphamide, 0.2 μM Doxorubicin, 8 nM vincristine, imaged every 20 min for 72 h
Description: Cultures were incubated at 37° C. in 5% CO2.
Mix each FUCCI Premo™ reagent (Thermo fisher, P36237) by inversion to ensure a homogenous solution. Add the mixed reagent to the SHEP-MYCN-ER cells in complete cell medium and mix gently. Return the cells to the culture incubator for over 16 hour.
High-content live-cell imaging analysis. After transfection, SHEP-MYCN-ER cells were incubated in complete cell medium with concentration indicated of different drugs (PC-002: 10 nM YM155, CHOP: 2 μM cyclophosphamide; 0.2 μM Doxorubicin; 8 nM vincristine). Cells were grown in Array Scan™ Live Cell Module and imaged every 20 min for 72 h under controlled growth conditions (CellInsight™ CX5 High-Content Screening (HSC) Platform, Thermo Fisher; Array Scan™ Live Cell Module, Thermo Fisher).
In the G1 phase of the cell cycle, geminin is broken down and only Cdtl tagged with RFP may be visualized, thus identifying cells in the G1 phase with red fluorescent nuclei. In the S, G2, and M phases, however, Cdt1 is degraded and only geminin tagged with GFP remains, thus identifying cells in these phases with green fluorescent nuclei. During the G1/S transition, both proteins are present in the cells, allowing GFP and RFP fluorescence to be observed—when green and red images are overlaid, the cells appear with yellow (orange) fluorescent nuclei. The dynamic color change from red-to-yellow, yellow-to-green or green-to-red represents the progression through cell cycle (live). The cell dead without color change represents the sensitivity to the drug (death).

1-(2-Methoxyethyl)-2-methyl-4,9-dioxo-3-(pyrazin-2-ylmethyl)-4,9-dihydro-1H-naphtho[2,3-d] imidazolium bromide [YM155]
cancer cell-killing activity in the G1 phase of the cell cycle (dead vs live cells) (FIG. 6A): not significantly | cancer cell-killing activity in the S/G2 phase of the cell cycle (dead vs live cells) (FIG. 6B): predominantly | cancer cell-killing activity in the M phase of the cell cycle (dead vs live cells) (FIG. 6C): not significantly
